Where “and” joins values, the source holds several entries; their conditions need not be identical. Equal values may be shown once. Calls of active or inactive are those of the source.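 The calls were made as follows: active = over 50% block of the Kir2.1 potassium channel by compound at 30 µM; inactive = the rest.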
molecular target: Inward rectifier potassium channel 2 (Mus musculus) (UniProt P35561); assay: Kir2.1 potassium channel inhibitors, dose response, cell-based, HEK293, thallium flux, FluxOR fluorescence (AID 624350); settings: HEK293 Kir2.1, FluxOR thallium flux fluorescence, 20 min
Sequence (P35561 whole entry, looked up): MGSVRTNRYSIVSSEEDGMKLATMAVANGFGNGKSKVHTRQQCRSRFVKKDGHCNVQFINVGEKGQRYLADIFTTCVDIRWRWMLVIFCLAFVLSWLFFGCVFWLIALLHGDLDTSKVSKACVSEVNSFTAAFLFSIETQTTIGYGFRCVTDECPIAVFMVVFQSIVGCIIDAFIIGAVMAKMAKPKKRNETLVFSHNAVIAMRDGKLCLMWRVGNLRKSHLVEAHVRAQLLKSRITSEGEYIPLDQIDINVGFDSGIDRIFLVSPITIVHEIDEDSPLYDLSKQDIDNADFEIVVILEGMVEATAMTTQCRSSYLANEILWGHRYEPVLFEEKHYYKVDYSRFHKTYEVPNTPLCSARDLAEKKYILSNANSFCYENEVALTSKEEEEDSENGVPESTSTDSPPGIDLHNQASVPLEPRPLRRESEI

| SMILES | IC50 | outcome |
| --- | --- | --- |
| Cc1ccc(C)c(OCCCNCC2CCCCC2)c1 | 18.9 µM |  |
| COCc1nc2ccccc2n1CC(C)C |  | inactive |
| O=S(=O)(c1ccc(Br)cc1)N1CCCCC1 |  | inactive |
| O=S(=O)(NCc1cccc2ccccc12)c1ccc(Br)cc1 |  | inactive |
| O=S(=O)(NCc1ccco1)c1ccc(Br)cc1 |  | inactive |
| Cc1ccc(C)c(OCCCN(C)CCO)c1 |  | inactive |
| COCc1nc2ccccc2n1CCN1CCOCC1 |  | inactive |
| Cc1ccc(C)c(OCCCNC[C@H](C)O)c1 |  | inactive |
| CCN(Cc1ccncc1)S(=O)(=O)c1ccc(Br)cc1 | 23 µM |  |
| COCc1nc2ccccc2n1Cc1ccccc1 |  | inactive |
| C[C@@H](NC(=O)c1ccc(Br)cc1)c1ccccc1 |  | inactive |
| Cc1ccc(C)c(OCCCN2CCCCC2)c1 |  | inactive |
| COc1ccc(N2CCN(S(=O)(=O)c3ccc(Br)cc3)CC2)cc1 |  | inactive |
| O=S(=O)(c1ccccc1Br)N1CCCc2ccccc21 | 10 µM |  |
| O=S(=O)(c1cccc(Br)c1)N1CCCc2ccccc21 | 12.6 µM |  |
| CCN(CC)CCCOc1cc(C)ccc1C |  | inactive |
| c1ccc(Cc2nc3ccccc3n2Cc2ccccc2)cc1 | 29.9 µM |  |
| Cc1ccc(C)c(OCCCN2CCOCC2)c1 |  | inactive |
| Cc1ccc(C)c(OCCCNc2ccccc2)c1 |  | inactive |
| c1ccc(Cc2nc3ccccc3n2-c2ccccc2)cc1 | 15 µM |  |
| O=S(=O)(c1ccc(Br)cc1)N1CCN(c2ccc(Cl)c(Cl)c2)CC1 |  | inactive |

| SMILES | IC50 | outcome |
| --- | --- | --- |
| c1ccc(Cc2nc3ccccc3n2C2CC2)cc1 |  | inactive |
| COc1ccc(CCNS(=O)(=O)c2ccc(Br)cc2)cc1OC |  | inactive |
| C[C@@H](NS(=O)(=O)c1ccc(Br)cc1)c1cccc2ccccc12 | 9.46 µM |  |
| Cc1ccc(C)c(OCCCNCCc2ccccc2)c1 | 10.6 µM |  |
| O=S(=O)(NCc1cc(F)cc(F)c1)c1ccc(Br)cc1 | 15.6 µM |  |
| O=S(=O)(NCc1cccnc1)c1ccc(Br)cc1 |  | inactive |
| Cc1ccc(C)c(OCCCN(C)Cc2ccccc2)c1 | 11.9 µM |  |
| O=S(=O)(NCCc1c[nH]c2ccccc12)c1ccc(Br)cc1 | 13.4 µM |  |
| O=S(=O)(NC1Cc2ccccc2C1)c1ccc(Br)cc1 | 28.4 µM |  |
| O=S(=O)(c1cccc(F)c1)N1CCCc2ccccc21 | 12.6 µM |  |
| O=S(=O)(c1ccc(Br)cc1)N1CCc2ccccc21 | 17.9 µM |  |
| O=S(=O)(NCc1ccc(F)c(F)c1)c1ccc(Br)cc1 | 11.3 µM |  |
| CN1CCN(S(=O)(=O)c2ccc(Br)cc2)CC1 |  | inactive |
| O=S(=O)(c1ccc(Br)cc1)N1CCCc2ccccc21 | 15.8 µM and 13.4 µM |  |
| C[C@@H](c1ccccc1)N(Cc1ccccc1)S(=O)(=O)c1ccc(Br)cc1 |  | inactive |
| O=S(=O)(NCc1ccccc1)c1ccc(Br)cc1 |  | inactive |
| Cc1ccc(C)c(OCCCNCc2cccc3ccccc23)c1 | 11.2 µM |  |
| O=S(=O)(c1ccccc1F)N1CCCc2ccccc21 | 11.2 µM |  |
| C[C@H](NC(=O)c1ccc(Br)cc1)c1ccccc1 |  | inactive |
| O=S(=O)(c1ccc(Br)cc1)N1CCC(c2ccccc2)CC1 |  | inactive |
| O=S(=O)(NCc1ccccn1)c1ccc(Br)cc1 |  | inactive |

| SMILES | IC50 | outcome |
| --- | --- | --- |
| Cc1ccc(C)c(OCCCNCCO)c1 |  | inactive |
| O=S(=O)(NCCc1ccccc1)c1ccc(Br)cc1 |  | inactive |
| CN(Cc1ccccc1)S(=O)(=O)c1ccc(Br)cc1 |  | inactive |
| COCc1nc2ccccc2n1-c1ccccc1 |  | inactive |
| O=S(=O)(NCc1cccc(F)c1)c1ccc(Br)cc1 |  | inactive |
| Cc1ccc(C)c(OCCCOCc2ccccc2)c1 |  | inactive |
| O=S(=O)(N[C@H]1c2ccccc2C[C@H]1O)c1ccc(Br)cc1 |  | inactive |
| O=S(=O)(NCC(c1ccccc1)c1ccccc1)c1ccc(Br)cc1 |  | inactive |
| O=S(=O)(NCc1ccncc1)c1ccc(Br)cc1 |  | inactive |
| O=S(=O)(NCc1ccc(F)cc1F)c1ccc(Br)cc1 | 16.3 µM |  |
| O=[N+]([O-])c1ccc(CNS(=O)(=O)c2ccc(Br)cc2)cc1 | 17.8 µM |  |
| Cc1ccc(C)c(OCCCNCc2ccc(Cl)c(Cl)c2)c1 | 13.4 µM |  |
| Cc1ccc(C)c(OCCCNC[C@@H](C)O)c1 | inactive |  |
| Cc1ccc(C)c(OCCCNCc2ccccc2)c1 | 8.91 µM |  |
| Cc1ccc(C)c(OCCCNCc2ccco2)c1 | inactive |  |
| O=C(c1ccc(F)cc1)N1CCCc2ccccc21 |  | inactive |
| CC(C)Cn1c(Cc2ccccc2)nc2ccccc21 | 28.4 µM |  |
| O=S(=O)(c1ccc(F)cc1)N1CCCc2ccccc21 | 11.9 µM |  |
| COc1ccccc1CCNS(=O)(=O)c1ccc(Br)cc1 | 7.81 µM |  |
| COCc1nc2ccccc2n1C1CC1 |  | inactive |

From PubChem BioAssay AID624350 (Johns Hopkins Ion Channel Center, 2012)
